Consider one molecule from US8778966B2, “Quinolinone derivatives as PARP and tank inhibitors” (Janssen Pharmaceutica, NV, priority 2007, dated 2014).

Series [1] concerns the target T1, Human PARP-1 enzyme (Homo sapiens, UniProt P09874).
T1 construct: purchased Trevigen
Nature of the series: In vitro Scintillation Proximity Assay (SPA) for PARP-1 inhibitory activity. The format is biochemical. The conditions noted are these: read-out: in vitro SPA assay PARP-1 pIC50 (converted). The protocol: Compounds of the present invention were tested in an in vitro assay based on SPA technology (proprietary to GE healthcare).
In principle, the assay relies upon the well established SPA technology for the detection of poly(ADP-ribosyl)ation of biotinylated target proteins, i.e histones. This ribosylation is induced using nicked DNA activated PARP-1 enzyme and [^3H]-nicotinamide adenine dinucleotide ([^3H]-NAD^+) as ADP-ribosyl donor.
Histones (type II-A, supplier: Sigma) were biotinylated using the biotinylation kit of Amersham and stored aliquoted at −20° C. A stock solution of 100 mg/ml SPA poly(vinyl toluene) (PVT) beads (supplier: Amersham) was made in PBS. A stock solution of 61.6 nM [^3H]-NAD^+ was made by adding [^3H]-NAD^+ (0.1 mCi/ml, supplier: Perkin Elmer) to incubation buffer (50 mM Tris/HCl, pH 8; 0.2 mM DTT; 4 mM MgCl2). A solution of 4 mM NAD^+ (supplier: Sigma) was made. Human PARP-1 enzyme was obtained from Trevigen. Biotinylated histones and PVT-SPA beads were mixed and pre-incubated for 30 min. at room temperature. PARP-1 enzyme (concentration was lot dependent) was mixed with the nicked DNA and the mixture was pre-incubated for 30 min. at 4° C. Equal parts of this histones/PVT-SPA beads solution and PARP-1 enzyme/DNA solution were mixed and 75 μl of this mixture together with 1 μl of compound in DMSO and 25 μl of [^3H]-NAD^+ was added per well into a 96-well microtiterplate. The final concentrations in the incubation mixture were 2 μg/ml for the biotinylated histones, 2 mg/ml for the PVT-SPA beads, 0.25 μg/ml for the nicked DNA and between 0.1-0.2 μg/ml for the PARP-1 enzyme. After incubation of the mixture for 20 min. at room temperature, the reaction was terminated by adding 100 μl of 4 mM NAD^+ in water (final concentration 2 mM) and plates were mixed. The beads were sedimented by centrifugation (10 min, 800 rpm). and plates transferred to a TopCountNXT™ (Packard) for scintillation counting, values were expressed as counts per minute (cpm). For each experiment, controls (containing PARP-1 enzyme and DMSO without compound), a blank incubation (containing DMSO but no PARP-1 enzyme, no DNA or compound) and samples (containing PARP-1 enzyme, DNA and compound dissolved in DMSO) were run in parallel. All compounds tested were dissolved and eventually further diluted in DMSO. A dose-response curve was made wherein the compounds were tested at concentrations between 10^−5M and 3×10^−9M. In each test, the blank value was subtracted from both the control and the sample values. The control sample represented maximal PARP-1 enzyme activity. For each sample, the amount of cpm was expressed as a percentage of the mean cpm value of the controls. When appropriate, IC50-values (concentration of the drug, needed to reduce the PARP-1 enzyme activity to 50% of the control) were computed using linear interpolation between the experimental points just above and below the 50% level. Herein the effects of test compounds are expressed as pIC50 (the negative log value of the IC50-value). As a reference compound, 4-amino-1,8-naphthalimide was included to validate the SPA assay.

Series [2] deals with T2, TANK-2 enzyme (Homo sapiens, UniProt Q9H2K2).
T2 construct: made in house
T2 sequence (Q9H2K2 1-1166): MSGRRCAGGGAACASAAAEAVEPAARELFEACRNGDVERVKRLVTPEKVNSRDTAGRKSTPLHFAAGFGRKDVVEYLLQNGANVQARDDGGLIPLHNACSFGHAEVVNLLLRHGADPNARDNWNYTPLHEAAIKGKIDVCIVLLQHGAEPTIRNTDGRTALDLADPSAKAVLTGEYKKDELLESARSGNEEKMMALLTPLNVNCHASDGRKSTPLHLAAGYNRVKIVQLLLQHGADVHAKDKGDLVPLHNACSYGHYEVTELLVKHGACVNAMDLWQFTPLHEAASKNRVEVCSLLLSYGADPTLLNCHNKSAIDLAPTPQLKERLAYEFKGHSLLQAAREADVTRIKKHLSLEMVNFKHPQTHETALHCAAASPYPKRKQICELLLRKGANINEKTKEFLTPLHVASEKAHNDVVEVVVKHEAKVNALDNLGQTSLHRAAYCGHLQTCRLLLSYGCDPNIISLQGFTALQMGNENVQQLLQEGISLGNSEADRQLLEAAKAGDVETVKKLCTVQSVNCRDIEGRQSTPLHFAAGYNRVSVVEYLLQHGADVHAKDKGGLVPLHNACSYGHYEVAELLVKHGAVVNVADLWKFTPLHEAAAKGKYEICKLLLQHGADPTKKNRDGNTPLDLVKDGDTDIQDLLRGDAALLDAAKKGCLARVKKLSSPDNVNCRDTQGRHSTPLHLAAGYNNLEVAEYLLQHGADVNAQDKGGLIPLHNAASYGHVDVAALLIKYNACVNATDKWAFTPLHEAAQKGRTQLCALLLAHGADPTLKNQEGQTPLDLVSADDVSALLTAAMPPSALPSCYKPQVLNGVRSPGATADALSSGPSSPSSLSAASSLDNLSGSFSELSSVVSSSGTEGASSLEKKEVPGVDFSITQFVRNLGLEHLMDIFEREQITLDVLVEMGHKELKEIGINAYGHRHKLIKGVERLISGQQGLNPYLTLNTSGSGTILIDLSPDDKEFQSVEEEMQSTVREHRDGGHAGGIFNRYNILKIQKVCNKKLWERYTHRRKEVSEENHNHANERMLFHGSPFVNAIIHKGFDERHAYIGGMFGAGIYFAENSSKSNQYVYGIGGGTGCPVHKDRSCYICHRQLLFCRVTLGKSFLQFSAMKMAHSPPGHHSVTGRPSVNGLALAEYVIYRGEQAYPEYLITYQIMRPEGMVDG
Nature of the series: In vitro Scintillation Proximity Assay (SPA) for TANK-2 inhibitory activity. The format is biochemical. The settings on record: in vitro SPA assay TANK-2 pIC50. The protocol: Compounds of the present invention were tested in an in vitro assay based on SPA technology with Ni Flash plates (96 or 384 well). In principle, the assay relies upon SPA technology for the detection of auto-poly(ADP-ribosyl)ation of TANK-2 protein using [^3H]-nicotinamide adenine dinucleotide ([^3H]-NAD^+) as ADP-ribosyl donor.
A stock solution of 100 nM [3H]-NAD^+/NAD (0.1 mCi/ml, supplier: Perkin Elmer) and 0.25 μM NAD (Sigma) was made in assay buffer (60 mM Tris/HCl, pH 7.4; 0.9 mM DTT; 6 mM MgCl2). The TANK-2 enzyme was produced as described in EP1238063. 60 μl of assay buffer, together with 1 μl of compound in DMSO, 20 μl of [^3H]-NAD^+/NAD and 20 μl of TANK-2 enzyme (final concentration 8 μg/ml) was added per well into a 96-well Ni-coated flash plate (Perkin Elmer). After incubation of the mixture for 120 min. at room temperature, the reaction was terminated by adding 60 μl of stopsolution (42.6 mg NAD in 6 ml H2O). The plates were covered with a plate sealer and placed in a TopCountNXT™ (Packard) for scintillation counting. Values were expressed as counts per minute (cpm). For each experiment, controls (containing TANK-2 enzyme and DMSO without compound), a blank incubation (containing DMSO but no TANK-2 enzyme or compound) and samples (containing TANK-2 enzyme and compound dissolved in DMSO) were run in parallel. All compounds tested were dissolved and eventually further diluted in DMSO. In first instance, compounds were tested at a concentration of 10^−5M. […] In each test, the blank value was subtracted from both the control and the sample values. The control sample represented maximal TANK-2 enzyme activity. For each sample, the amount of cpm was expressed as a percentage of the mean cpm value of the controls. When appropriate, IC50-values (concentration of the drug, needed to reduce the TANK-2 enzyme activity to 50% of the control) were computed using linear interpolation between the experimental points just above and below the 50% level. Herein the effects of test compounds are expressed as pIC50 (the negative log value of the IC50-value). As reference compounds, 3-aminobenzamide and 4-amino-1,8-naphtalimide were included to validate the SPA assay. Herein the assay was described using 96-well plates. In the assay using 384-well plates the same final concentrations were used and volumes were adapted.

T1 sequence (P09874 whole entry): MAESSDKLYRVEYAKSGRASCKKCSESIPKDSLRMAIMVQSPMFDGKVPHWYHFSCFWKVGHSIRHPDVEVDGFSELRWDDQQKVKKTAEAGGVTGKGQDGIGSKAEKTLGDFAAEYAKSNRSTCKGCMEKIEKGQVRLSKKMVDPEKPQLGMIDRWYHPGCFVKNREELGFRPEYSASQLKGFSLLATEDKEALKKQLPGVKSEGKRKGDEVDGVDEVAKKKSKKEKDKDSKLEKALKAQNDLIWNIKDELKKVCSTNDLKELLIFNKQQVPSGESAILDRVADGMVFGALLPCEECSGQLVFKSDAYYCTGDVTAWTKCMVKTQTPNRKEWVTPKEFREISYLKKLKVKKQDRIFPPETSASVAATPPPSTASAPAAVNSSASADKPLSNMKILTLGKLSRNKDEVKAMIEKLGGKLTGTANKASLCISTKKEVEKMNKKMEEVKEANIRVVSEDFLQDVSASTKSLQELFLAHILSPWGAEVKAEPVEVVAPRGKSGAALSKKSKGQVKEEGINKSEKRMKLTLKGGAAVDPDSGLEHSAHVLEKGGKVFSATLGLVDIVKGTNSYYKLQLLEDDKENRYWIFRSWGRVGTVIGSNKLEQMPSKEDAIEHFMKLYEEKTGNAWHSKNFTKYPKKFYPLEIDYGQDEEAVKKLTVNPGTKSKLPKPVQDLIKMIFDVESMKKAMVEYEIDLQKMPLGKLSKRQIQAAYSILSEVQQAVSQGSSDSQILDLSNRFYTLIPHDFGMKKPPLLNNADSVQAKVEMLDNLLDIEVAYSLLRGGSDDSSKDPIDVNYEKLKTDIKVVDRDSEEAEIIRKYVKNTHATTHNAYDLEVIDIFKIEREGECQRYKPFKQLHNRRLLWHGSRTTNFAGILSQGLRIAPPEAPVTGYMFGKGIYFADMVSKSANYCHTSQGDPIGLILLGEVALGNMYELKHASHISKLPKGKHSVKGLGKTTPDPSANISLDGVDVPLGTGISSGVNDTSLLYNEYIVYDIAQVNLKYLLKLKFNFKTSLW

`CCc1cc2ccc(C(C)(C#N)Cc3nc(C#N)cc(OC)n3)cc2[nH]c1=O` (single isomer, unassigned) [Compound 203]: the melting point is 179 °C. The IC50 in series [1] was 50.1 nM. Also, the IC50 in series [2] was 79.4 nM.
